Test system: patients with cGVHD
Test: Example 2: safety, adverse events, relative dose intensity
Assay type: in vivo
Conditions: for Cough / Diarrhea / Dyspnea / Fatigue / Headache / Muscle spasms / Nausea / Peripheral edema / Upper respiratory tract infection / Vomiting: All grades; for Hyperglycemia / Hypertension / Pneumonia: Grade ≥ 3
Procedure: All responses were assessed by the study site investigators.

With `CC(C)NC(=O)COc1cccc(-c2nc(Nc3ccc4[nH]ncc4c3)c3ccccc3n2)c1` [Belumosudil, 2-{3-[4-(1H-indazol-5-ylamino)-2-quinazolinyl]phenoxy}-N-(propan-2-yl) acetamide] the “Any AE” value (200 mg daily (n = 66)) was 65 (99) n (%), the Deaths (200 mg daily (n = 66)) was 8 (12) n (%) and the “Drug-related AEs” value (200 mg daily (n = 66)) was 49 (74) n (%). The “Drug-related SAEs” value (200 mg daily (n = 66)) was 5 (8) n (%), the “Grade ≥ 3 AEs” value (200 mg daily (n = 66)) was 37 (56) n (%) and the “Liver-related AEs” value (200 mg daily (n = 66)) was 12 (18) n (%). For the same compound, the SAEs (200 mg daily (n = 66)) was 27 (41) n (%), the “Any AE” value (200 mg twice daily (n = 66)) was 66 (100) n (%) and the Deaths (200 mg twice daily (n = 66)) was 6 (9) n (%). For the same compound, the “Drug-related AEs” value (200 mg twice daily (n = 66)) was 40 (61) n (%), the “Drug-related SAEs” value (200 mg twice daily (n = 66)) was 2 (3) n (%) and the “Grade ≥ 3 AEs” value (200 mg twice daily (n = 66)) was 34 (52) n (%). For the same compound, the “Liver-related AEs” value (200 mg twice daily (n = 66)) was 19 (29) n (%), the SAEs (200 mg twice daily (n = 66)) was 23 (35) n (%) and the Cough (200 mg daily (n = 66)) was 20 (30) n (%). The Diarrhea (200 mg daily (n = 66)) was 23 (35) n (%), the Dyspnea (200 mg daily (n = 66)) was 21 (32) n (%) and the Fatigue (200 mg daily (n = 66)) was 30 (46) n (%). For the same compound, the Headache (200 mg daily (n = 66)) was 13 (20) n (%), the Muscle spasms (200 mg daily (n = 66)) was 13 (20) n (%) and the Nausea (200 mg daily (n = 66)) was 23 (35) n (%). The Peripheral edema (200 mg daily (n = 66)) was 17 (26) n (%), the “Upper respiratory tract infection” value (200 mg daily (n = 66)) was 17 (26) n (%) and the Vomiting (200 mg daily (n = 66)) was 18 (27) n (%). For the same compound, the Cough (200 mg twice daily (n = 66)) was 17 (26) n (%), the Diarrhea (200 mg twice daily (n = 66)) was 21 (32) n (%) and the Dyspnea (200 mg twice daily (n = 66)) was 12 (18) n (%). The Fatigue (200 mg twice daily (n = 66)) was 20 (30) n (%), the Headache (200 mg twice daily (n = 66)) was 18 (27) n (%) and the Muscle spasms (200 mg twice daily (n = 66)) was 13 (20) n (%). For the same compound, the Nausea (200 mg twice daily (n = 66)) was 18 (27) n (%), the Peripheral edema (200 mg twice daily (n = 66)) was 13 (20) n (%) and the “Upper respiratory tract infection” value (200 mg twice daily (n = 66)) was 18 (27) n (%). The Vomiting (200 mg twice daily (n = 66)) was 10 (15) n (%), the Cough (Total (N = 132)) was 37 (28) n (%) and the Diarrhea (Total (N = 132)) was 44 (33) n (%). The Dyspnea (Total (N = 132)) was 33 (25) n (%), the Fatigue (Total (N = 132)) was 50 (38) n (%) and the Headache (Total (N = 132)) was 31 (24) n (%). For the same compound, the Muscle spasms (Total (N = 132)) was 26 (20) n (%), the Nausea (Total (N = 132)) was 41 (31) n (%) and the Peripheral edema (Total (N = 132)) was 30 (23) n (%). For the same compound, the “Upper respiratory tract infection” value (Total (N = 132)) was 35 (27) n (%), the Vomiting (Total (N = 132)) was 28 (21) n (%) and the SAE pneumonia (Example 2) was 7%. The “deaths from multiorgan failure and infection possibly related to belumosudil” value (Example 2) was 2, the “grade 3 or 4 hyperglycemia” value (Example 2) was 5% and the “grade 3 or 4 hypertension” value (Example 2) was 6%. The “grade 3 or 4 pneumonia” value (Example 2) was 8%, the “grade ≥3 anemia” value (Example 2) was 3% and the “grade ≥3 cytopenias” value (Example 2) was under 4%. For the same compound, the “grade ≥3 neutropenia” value (Example 2) was 2%, the “grade ≥3 thrombocytopenia” value (Example 2) was 2% and the “increased GGT (AE)” value (Example 2) was 12%. The “median RDI” value (Example 2) was 99.7%, the “subjects who died during the study” value (Example 2) was “Fourteen” and the “subjects who discontinued because of overall AEs” value (Example 2) was 21%. The “subjects who discontinued because of possible drug-related AEs” value (Example 2) was 12%, the “subjects who discontinued because of progression of cGVHD” value (Example 2) was 16% and the “subjects who discontinued because of progression of underlying malignant disease” value (Example 2) was 4%. For the same compound, the “subjects who received an RDI >95%” value (Example 2) was “Eighty-one”, the “subjects with increased liver function tests (LFTs)” value (Example 2) was “Twenty-four” and the “subjects with ≥1 SAE” value (Example 2) was “Thirty eight”. The tolerability (Example 2) was “well tolerated”, the “cases of Epstein-Barr viremia that required treatment” value (Example 2, unrelated to belumosudil) was 1 case and the Hyperglycemia (200 mg daily (n = 66)) was 3 (5) n (%). For the same compound, the Hypertension (200 mg daily (n = 66)) was 4 (6) n (%), the Pneumonia (200 mg daily (n = 66)) was 6 (9) n (%) and the Hyperglycemia (200 mg twice daily (n = 66)) was 3 (5) n (%). The Hypertension (200 mg twice daily (n = 66)) was 4 (6) n (%) and the Pneumonia (200 mg twice daily (n = 66)) was 4 (6) n (%).
